Data taken from DBAASP.
Values after ≈ are worked out from the molar mass of the structure shown. Each block holds one molecule with its values, some of them ahead of it.

How the values were obtained:
Test in all cases: ≥ marks a high value that may be exact or a test limit, other limits are often not marked, values filed in µg/mL are converted to µM
[1] = tested on: Yersinia enterocolitica
[2] = tested on: Staphylococcus aureus ATCC 29213
[3] = tested on: Escherichia coli
[4] = tested on: Escherichia coli ATCC 25922
[5] = tested on: Staphylococcus aureus ATCC 43300
[6] = tested on: Salmonella sp.
[7] = tested on: Salmonella enterica subsp. enterica serovar Enteritidis
[8] = tested on: Staphylococcus aureus ATCC 6538
[9] = tested on: Klebsiella pneumoniae NCTC 5055
[10] = tested on: Pseudomonas aeruginosa ATCC 27853
[11] = tested on: Escherichia coli ATCC 15597
[12] = tested on: Micrococcus luteus ATCC 49732
[13] = tested on: Bacillus subtilis ATCC 6633
[14] = tested on: Salmonella typhimurium DA6192
[15] = tested on: Escherichia coli O111
[16] = tested on: Staphylococcus aureus FDA 209P
[17] = tested on: Klebsiella pneumoniae ATCC 700603
[18] = tested on: Staphylococcus aureus SH1000
[19] = tested on: Candida albicans ATCC 90028
[20] = tested on: Acinetobacter baumannii ATCC 19606
[21] = tested on: Cryptococcus neoformans ATCC 208821
[22] = tested on: Staphylococcus aureus ATCC 12600
[23] = tested on: Streptococcus mutans ATCC 25175
[24] = tested on: Staphylococcus aureus MR
[25] = tested on: Staphylococcus aureus ATCC 25923
[26] = tested on: Pseudomonas aeruginosa ATCC 15442
[27] = tested on: Escherichia coli D31
[28] = tested on: Pseudomonas aeruginosa PAO1
[29] = tested on: Candida albicans ATCC 10231

MIC [1]: ≥ 39.8 µM
MIC [2]: > 39.8 µM
MIC [3]: > 39.8 µM
MIC [4]: > 39.8 µM
MIC [5]: > 39.8 µM
MIC [6]: ≥ 39.8 µM
MIC [7]: ≥ 39.8 µM
SMILES: CC[C@H](C)[C@H](NC(=O)[C@H](CCC(N)=O)NC(=O)[C@@H](N)CCCN=C(N)N)C(=O)N[C@H](C(=O)N[C@@H](CCCN=C(N)N)C(=O)N[C@@H](CCCN=C(N)N)C(=O)N[C@@H](CCSC)C(=O)N[C@@H](CCC(N)=O)C(=O)N[C@@H](CCCN=C(N)N)C(N)=O)[C@@H](C)CC [RQIIRRMQR]

MIC [15]: 6.01 µM (≈ 19.6 µg/mL)
MIC [16]: 3.01 µM (≈ 9.79 µg/mL)
MIC [4]: 3.01 µM (≈ 9.79 µg/mL)
MIC [13]: 19.6 µM (≈ 64 µg/mL)
SMILES: CC[C@H](C)[C@H](NC(=O)CNC(=O)[C@H](CCC(=O)O)NC(=O)[C@H](Cc1c[nH]c2ccccc12)NC(=O)[C@@H](NC(=O)[C@@H](N)CO)[C@@H](C)CC)C(=O)N[C@@H](CCCCN)C(=O)N[C@@H](CC(N)=O)C(=O)N[C@@H](C)C(=O)NCC(=O)N[C@@H](CCCCN)C(=O)NCC(=O)N[C@@H](Cc1ccccc1)C(=O)N[C@@H](CC(C)C)C(=O)N[C@H](C(=O)N[C@@H](CO)C(=O)N[C@H](C(=O)N[C@@H](CC(C)C)C(=O)N[C@@H](CC(=O)O)C(=O)N[C@@H](CCCCN)C(=O)N[C@H](C(=O)N[C@@H](CCCN=C(N)N)C(=O)N[C@H]1CSSC[C@@H](C(=O)N[C@@H](CC(N)=O)C(=O)N2CCC[C@H]2C(=O)O)NC(=O)CNC(=O)CNC(=O)[C@H](C)NC(=O)[C@H](C(C)C)NC(=O)[C@H](CCCCN)NC1=O)C(C)C)[C@@H](C)CC)C(C)C [SIWEGIKNAGKGFLVSILDKVRCKVAGGCNP]

MIC [8]: 15 µM (≈ 31.2 µg/mL)
MIC [9]: ≥ 50 µM
MIC [10]: 25 µM (≈ 52.1 µg/mL)
MIC [11]: 3.1 µM (≈ 6.46 µg/mL)
MIC [12]: 1.5 µM (≈ 3.12 µg/mL)
MIC [13]: 15 µM (≈ 31.2 µg/mL)
MIC [14]: ≥ 40 µM
SMILES: CC[C@H](C)[C@H](N)C(=O)N[C@H](C(=O)N[C@@H](CCCCN)C(=O)N[C@H](C(=O)N[C@H](C(=O)N[C@H](C(=O)N[C@@H](CCCCN)C(=O)N[C@@H](CC(C)C)C(=O)N[C@@H](CC(C)C)C(=O)N[C@@H](CC(N)=O)C(=O)N[C@@H](CCCN=C(N)N)C(=O)N[C@@H](CC(C)C)C(=O)N[C@H](C(=O)N[C@@H](CCCCN)C(=O)N[C@H](C(=O)N[C@@H](CC(C)C)C(=O)N[C@@H](CO)C(=O)N[C@@H](CCCCN)C(=O)O)[C@@H](C)CC)[C@@H](C)O)[C@@H](C)O)[C@@H](C)CC)C(C)C)[C@@H](C)O [ITKVITKLLNRLTKILSK]

MIC [1]: ≥ 34.1 µM
MIC [2]: > 34.1 µM
MIC [3]: > 34.1 µM
MIC [4]: > 34.1 µM
MIC [5]: > 34.1 µM
MIC [6]: ≥ 34.1 µM
MIC [7]: ≥ 34.1 µM
SMILES: CC[C@H](C)[C@H](NC(=O)[C@H](CCCCN)NC(=O)[C@@H]1CCCN1C(=O)[C@H](CCC(N)=O)NC(=O)[C@@H](N)CCCN=C(N)N)C(=O)N1CCC[C@H]1C(=O)N[C@@H](CCCN=C(N)N)C(=O)N[C@@H](CCSC)C(=O)N1CCC[C@H]1C(=O)N[C@@H](Cc1c[nH]c2ccccc12)C(=O)N[C@@H](CCCN=C(N)N)C(N)=O [RQPKIPRMPWR]

Continued, molecule first:

SMILES: CC[C@H](C)[C@H](N)C(=O)N[C@@H](CCC(N)=O)C(=O)N[C@@H](CCCCN)C(=O)N[C@H](C(=O)N[C@H](C(=O)N[C@@H](CCC(N)=O)C(=O)N[C@@H](CCCCN)C(=O)N[C@@H](CC(C)C)C(=O)N[C@@H](CC(C)C)C(=O)N[C@@H](CC(N)=O)C(=O)N[C@@H](CCCN=C(N)N)C(=O)N[C@@H](CC(C)C)C(=O)N[C@@H](CCC(N)=O)C(=O)N[C@@H](CCCCN)C(=O)N[C@H](C(=O)N[C@@H](CC(C)C)C(=O)N[C@@H](CCC(N)=O)C(=O)N[C@@H](CCCCN)C(=O)O)[C@@H](C)CC)[C@@H](C)CC)C(C)C [IQKVIQKLLNRLQKILQK]
MIC [8]: > 50 µM
MIC [9]: 12.5 µM (≈ 27.6 µg/mL)
MIC [10]: 3.1 µM (≈ 6.83 µg/mL)
MIC [11]: 3.1 µM (≈ 6.83 µg/mL)
MIC [12]: 1.05 µM (≈ 2.32 µg/mL)
MIC [13]: 4.2 µM (≈ 9.26 µg/mL)
MIC [14]: 20.8 µM (≈ 45.9 µg/mL)

SMILES: CC[C@H](C)[C@H](NC(=O)[C@H](CC(=O)O)NC(=O)[C@H](Cc1ccccc1)NC(=O)[C@H](CC(C)C)NC(=O)CN)C(=O)N[C@H](C(=O)N[C@@H](CCCCN)C(=O)N[C@@H](CCCCN)C(=O)N[C@H](C(=O)N[C@H](C(=O)NCC(=O)N[C@@H](C)C(=O)N[C@@H](CC(C)C)C(=O)N[C@@H](CCCCN)C(N)=O)C(C)C)C(C)C)C(C)C [GLFDIVKKVVGALK]
MIC [17]: > 22 µM
MIC [18]: ≥ 33 µM
MIC [19]: 22 µM (≈ 32.7 µg/mL)
MIC [10]: > 22 µM
MIC [4]: > 22 µM
MIC [5]: > 22 µM
MIC [20]: > 22 µM
MIC [21]: 22 µM (≈ 32.7 µg/mL)

SMILES: CC[C@H](C)[C@H](NC(=O)[C@H](C)NC(=O)CNC(=O)[C@H](Cc1ccccc1)NC(=O)[C@H](CC(C)C)NC(=O)CN)C(=O)N[C@@H](C)C(=O)NCC(=O)N[C@@H](Cc1ccccc1)C(=O)N[C@H](C(=O)N[C@@H](CCCCN)C(=O)N[C@@H](CC(N)=O)C(=O)NCC(=O)N[C@@H](Cc1c[nH]c2ccccc12)C(=O)N[C@@H](CCCCN)C(=O)NCC(=O)N[C@@H](CCSC)C(=O)N[C@H](C(=O)N[C@@H](CCCCN)C(=O)NCC(N)=O)[C@@H](C)CC)[C@@H](C)CC [GLFGAIAGFIKNGWKGMIKG]
MIC [10]: 7.6 µM (≈ 15.7 µg/mL)
MIC [4]: 3.8 µM (≈ 7.85 µg/mL)
MIC [22]: 3.8 µM (≈ 7.85 µg/mL)
MIC [23]: 1.9 µM (≈ 3.92 µg/mL)

SMILES: CC[C@H](C)[C@H](NC(=O)[C@H](CCCCN)NC(=O)[C@H](CCC(N)=O)NC(=O)[C@H](CC(C)C)NC(=O)[C@@H](N)Cc1ccccc1)C(=O)N[C@H](C(=O)NCC(=O)N[C@@H](C)C(=O)N[C@@H](CC(C)C)C(=O)NCC(=O)N[C@@H](Cc1cnc[nH]1)C(=O)N[C@@H](CC(C)C)C(=O)N[C@@H](Cc1ccccc1)C(N)=O)[C@@H](C)CC [FLQKIIGALGHLF]
MIC [24]: 12.5 µM (≈ 18.2 µg/mL)
MIC [25]: 3.1 µM (≈ 4.51 µg/mL)
MIC [26]: 6.2 µM (≈ 9.03 µg/mL)
MIC [27]: ≥ 100 µM
MIC [4]: 12.5 µM (≈ 18.2 µg/mL)
MIC [5]: 6.2 µM (≈ 9.03 µg/mL)
MIC [28]: > 100 µM
MIC [23]: 6.2 µM (≈ 9.03 µg/mL)
MIC [13]: ≥ 100 µM
MIC [29]: > 100 µM

SMILES: CC[C@H](C)[C@H](NC(=O)CN)C(=O)N[C@@H](Cc1ccccc1)C(=O)N[C@H](C(=O)N[C@@H](CC(C)C)C(=O)N[C@@H](Cc1ccccc1)C(=O)N[C@@H](CCCCN)C(=O)NCC(=O)N[C@@H](C)C(=O)N[C@@H](C)C(=O)N[C@@H](CCCCN)C(=O)N[C@@H](CC(C)C)C(=O)N[C@@H](CC(C)C)C(=O)NCC(=O)N[C@@H](CCCCN)C(=O)N[C@H](C(=O)N[C@@H](CC(C)C)C(=O)N[C@@H](C)C(=O)N[C@@H](CCCCN)C(=O)N[C@@H](CCC(=O)O)C(=O)N[C@@H](C)C(=O)NCC(=O)N[C@@H](CCCCN)C(=O)N[C@H](C(=O)NCC(=O)N[C@@H](CC(C)C)C(=O)N[C@@H](CCC(=O)O)C(=O)N[C@@H](CC(C)C)C(=O)N[C@@H](CCSC)C(=O)N[C@@H](C)C(=O)N[C@H]1CSSC[C@@H](C(=O)O)NC(=O)[C@H](CCC(N)=O)NC(=O)[C@H](CC(N)=O)NC(=O)[C@H]([C@@H](C)O)NC(=O)[C@H](C(C)C)NC(=O)[C@H](CCCCN)NC1=O)[C@@H](C)O)[C@@H](C)O)[C@@H](C)O [GIFTLFKGAAKLLGKTLAKEAGKTGLELMACKVTNQC]
MIC [16]: 4.4 µM (≈ 17 µg/mL)
MIC [4]: 2.8 µM (≈ 10.8 µg/mL)

SMILES: CC[C@H](C)[C@H](NC(=O)[C@H](CC(=O)O)NC(=O)[C@H](Cc1ccccc1)NC(=O)[C@H](CC(C)C)NC(=O)CN)C(=O)N[C@H](C(=O)N[C@@H](CCCCN)C(=O)N[C@@H](CCCCN)C(=O)N[C@H](C(=O)N[C@@H](CC(C)C)C(=O)N[C@@H](CCCCN)C(=O)N[C@@H](CC(C)C)C(=O)N[C@@H](CC(C)C)C(=O)N[C@@H](CCCCN)C(N)=O)C(C)C)C(C)C [GLFDIVKKVLKLLK]
MIC [17]: > 20 µM
MIC [18]: 3.3 µM (≈ 5.32 µg/mL)
MIC [19]: 20 µM (≈ 32.3 µg/mL)
MIC [10]: > 20 µM
MIC [4]: > 20 µM
MIC [5]: > 20 µM
MIC [20]: > 20 µM
MIC [21]: 20 µM (≈ 32.3 µg/mL)
